Reference: ChEMBL document CHEMBL1201862, “PubChem BioAssay data set” (2004)
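Each compound was tested at five concentrations against cells in 96-well plates for 48 hours. The concentration for 50% growth inhibition is given as GI50.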 Calls of active or inactive are those of the source. No stated cut-off is given here; in the data, active = GI50 up to about 1.1 µM and inactive = higher.

Tests used:
Assay in all cases: NCI tumour cell line growth inhibition, 48 h
786-0 = tested on: 786-0
A498 = tested on: A498
A549 = tested on: A549
ACHN = tested on: ACHN
BT-549 = tested on: BT-549
CAKI-1 = tested on: CAKI-1
CCRF-CEM = tested on: CCRF-CEM
COLO 205 = tested on: COLO 205
DU-145 = tested on: DU-145
EKVX = tested on: EKVX
HCC 2998 = tested on: HCC 2998
HCT-116 = tested on: HCT-116
HCT-15 = tested on: HCT-15
HOP-62 = tested on: HOP-62
HT-29 = tested on: HT-29
Hs-578T = tested on: Hs-578T
IGROV-1 = tested on: IGROV-1
K562 = tested on: K562
KM12 = tested on: KM12
LOX IMVI = tested on: LOX IMVI
M14 = tested on: M14
MCF7 = tested on: MCF7
MDA-MB-231 = tested on: MDA-MB-231
MDA-MB-435 = tested on: MDA-MB-435
MDA-N = tested on: MDA-N
MOLT-4 = tested on: MOLT-4
Malme-3M = tested on: Malme-3M
NCI-H226 = tested on: NCI-H226
NCI-H460 = tested on: NCI-H460
NCI-H522 = tested on: NCI-H522
NCI/ADR-RES = tested on: NCI/ADR-RES
OVCAR-3 = tested on: OVCAR-3
OVCAR-4 = tested on: OVCAR-4
OVCAR-5 = tested on: OVCAR-5
OVCAR-8 = tested on: OVCAR-8
PC-3 = tested on: PC-3
RPMI-8226 = tested on: RPMI-8226
RXF 393 = tested on: RXF 393
SF-268 = tested on: SF-268
SF-295 = tested on: SF-295
SK-MEL-28 = tested on: SK-MEL-28
SK-MEL-2 = tested on: SK-MEL-2
SK-MEL-5 = tested on: SK-MEL-5
SK-OV-3 = tested on: SK-OV-3
SN12C = tested on: SN12C
SNB-19 = tested on: SNB-19
SNB-75 = tested on: SNB-75
SR = tested on: SR
SW-620 = tested on: SW-620
T47D = tested on: T47D
TK-10 = tested on: TK-10
U-251 = tested on: U-251
UACC-257 = tested on: UACC-257
UACC-62 = tested on: UACC-62
UO-31 = tested on: UO-31
HL-60 = tested on: HL-60
HOP-92 = tested on: HOP-92
NCI-H23 = tested on: NCI-H23
SF-539 = tested on: SF-539

For `Cc1ccc(Cc2nn(C)c(=O)n2-n2cccc2)cc1`, the GI50 (786-0) was > 100 µM (inactive), the GI50 (A498) was > 100 µM (inactive) and the GI50 (A549) was > 100 µM (inactive). The GI50 (ACHN) was > 100 µM (inactive), the GI50 (BT-549) was > 100 µM (inactive) and the GI50 (CAKI-1) was > 100 µM (inactive). For the same molecule, the GI50 (CCRF-CEM) was > 100 µM (inactive), the GI50 (COLO 205) was > 100 µM (inactive) and the GI50 (DU-145) was > 100 µM (inactive). The GI50 (EKVX) was > 100 µM (inactive), the GI50 (HCC 2998) was > 100 µM (inactive) and the GI50 (HCT-116) was > 100 µM (inactive). For the same molecule, the GI50 (HCT-15) was > 100 µM, the GI50 (HOP-62) was > 100 µM (inactive) and the GI50 (HT-29) was > 100 µM (inactive). The GI50 (Hs-578T) was > 100 µM (inactive), the GI50 (IGROV-1) was > 100 µM (inactive) and the GI50 (K562) was > 100 µM (inactive). The GI50 (KM12) was > 100 µM (inactive), the GI50 (LOX IMVI) was > 100 µM (inactive) and the GI50 (M14) was > 100 µM (inactive). The GI50 (MCF7) was > 100 µM (inactive), the GI50 (MDA-MB-231) was > 100 µM (inactive) and the GI50 (MDA-MB-435) was > 100 µM (inactive). The GI50 (MDA-N) was > 100 µM (inactive), the GI50 (MOLT-4) was > 100 µM (inactive) and the GI50 (Malme-3M) was > 100 µM (inactive). The GI50 (NCI-H226) was > 100 µM (inactive), the GI50 (NCI-H460) was > 100 µM (inactive) and the GI50 (NCI-H522) was > 100 µM (inactive). For the same molecule, the GI50 (NCI/ADR-RES) was > 100 µM (inactive), the GI50 (OVCAR-3) was > 100 µM (inactive) and the GI50 (OVCAR-4) was > 100 µM (inactive). The GI50 (OVCAR-5) was > 100 µM (inactive), the GI50 (OVCAR-8) was > 100 µM (inactive) and the GI50 (PC-3) was > 100 µM (inactive). The GI50 (RPMI-8226) was > 100 µM (inactive), the GI50 (RXF 393) was > 100 µM (inactive) and the GI50 (SF-268) was > 100 µM (inactive). For the same molecule, the GI50 (SF-295) was > 100 µM (inactive), the GI50 (SK-MEL-28) was > 100 µM (inactive) and the GI50 (SK-MEL-2) was > 100 µM (inactive). The GI50 (SK-MEL-5) was > 100 µM (inactive), the GI50 (SK-OV-3) was > 100 µM (inactive) and the GI50 (SN12C) was > 100 µM (inactive). The GI50 (SNB-19) was > 100 µM (inactive), the GI50 (SNB-75) was > 100 µM (inactive) and the GI50 (SR) was > 100 µM (inactive). For the same molecule, the GI50 (SW-620) was > 100 µM (inactive), the GI50 (T47D) was > 100 µM (inactive) and the GI50 (TK-10) was > 100 µM (inactive). For the same molecule, the GI50 (U-251) was > 100 µM (inactive), the GI50 (UACC-257) was 56.8 µM (inactive) and the GI50 (UACC-62) was > 100 µM (inactive). For the same molecule, the GI50 (UO-31) was > 100 µM (inactive).
With `NCCN1C(=O)c2ccccc2C1c1ccc(Cl)cc1` (stereo unspecified) the GI50 (786-0) was > 100 µM (inactive), the GI50 (A498) was > 100 µM (inactive) and the GI50 (A549) was > 100 µM (inactive). For the same molecule, the GI50 (ACHN) was > 100 µM (inactive), the GI50 (BT-549) was > 100 µM (inactive) and the GI50 (CAKI-1) was > 100 µM (inactive). For the same molecule, the GI50 (CCRF-CEM) was > 100 µM (inactive), the GI50 (COLO 205) was > 100 µM (inactive) and the GI50 (DU-145) was > 100 µM (inactive). For the same molecule, the GI50 (EKVX) was > 100 µM (inactive), the GI50 (HCC 2998) was > 100 µM (inactive) and the GI50 (HCT-116) was > 100 µM (inactive). The GI50 (HCT-15) was > 100 µM, the GI50 (HL-60) was > 100 µM (inactive) and the GI50 (HOP-62) was > 100 µM (inactive). The GI50 (HOP-92) was > 100 µM (inactive), the GI50 (HT-29) was > 100 µM (inactive) and the GI50 (Hs-578T) was > 100 µM (inactive). The GI50 (IGROV-1) was > 100 µM (inactive), the GI50 (K562) was > 100 µM (inactive) and the GI50 (KM12) was > 100 µM (inactive). The GI50 (LOX IMVI) was > 100 µM (inactive), the GI50 (M14) was > 100 µM (inactive) and the GI50 (MCF7) was > 100 µM (inactive). The GI50 (MDA-MB-231) was > 100 µM (inactive), the GI50 (MDA-MB-435) was > 100 µM (inactive) and the GI50 (MDA-N) was > 100 µM (inactive). For the same molecule, the GI50 (MOLT-4) was > 100 µM (inactive), the GI50 (NCI-H23) was > 100 µM (inactive) and the GI50 (NCI-H460) was > 100 µM (inactive). For the same molecule, the GI50 (NCI/ADR-RES) was > 100 µM (inactive), the GI50 (OVCAR-3) was > 100 µM (inactive) and the GI50 (OVCAR-4) was > 100 µM (inactive). The GI50 (OVCAR-5) was > 100 µM (inactive), the GI50 (OVCAR-8) was > 100 µM (inactive) and the GI50 (PC-3) was 92.3 µM (inactive). The GI50 (RPMI-8226) was > 100 µM (inactive), the GI50 (RXF 393) was > 100 µM (inactive) and the GI50 (SF-268) was > 100 µM (inactive). For the same molecule, the GI50 (SF-295) was > 100 µM (inactive), the GI50 (SF-539) was > 100 µM (inactive) and the GI50 (SK-MEL-28) was > 100 µM (inactive). The GI50 (SK-MEL-2) was > 100 µM (inactive), the GI50 (SK-MEL-5) was > 100 µM (inactive) and the GI50 (SK-OV-3) was > 100 µM (inactive). The GI50 (SN12C) was > 100 µM (inactive), the GI50 (SNB-19) was > 100 µM (inactive) and the GI50 (SNB-75) was > 100 µM (inactive). The GI50 (SR) was > 100 µM (inactive), the GI50 (SW-620) was > 100 µM (inactive) and the GI50 (T47D) was > 100 µM (inactive). The GI50 (TK-10) was > 100 µM (inactive), the GI50 (U-251) was > 100 µM (inactive) and the GI50 (UACC-257) was > 100 µM (inactive). The GI50 (UACC-62) was > 100 µM (inactive) and the GI50 (UO-31) was > 100 µM (inactive).
